Data published in US6979686B1, “Substituted pyrazoles as p38 kinase inhibitors” (Pharmacia Corporation, priority 2001, dated 2005).

Molecular target: T1, human p38 kinase alpha (Homo sapiens, UniProt Q16539)
T1 construct: GST (N, cleaved yes); made in house; host or cells: E. coli DH10B
Experiment: p38 kinase in vitro assay, phosphorylation of biotinylated PHAS-I with 32P-ATP
Format: biochemical
Settings: in vitro P38-alpha kinase; read-out: P38 alpha kinase IC50

T1 sequence (Q16539 whole entry): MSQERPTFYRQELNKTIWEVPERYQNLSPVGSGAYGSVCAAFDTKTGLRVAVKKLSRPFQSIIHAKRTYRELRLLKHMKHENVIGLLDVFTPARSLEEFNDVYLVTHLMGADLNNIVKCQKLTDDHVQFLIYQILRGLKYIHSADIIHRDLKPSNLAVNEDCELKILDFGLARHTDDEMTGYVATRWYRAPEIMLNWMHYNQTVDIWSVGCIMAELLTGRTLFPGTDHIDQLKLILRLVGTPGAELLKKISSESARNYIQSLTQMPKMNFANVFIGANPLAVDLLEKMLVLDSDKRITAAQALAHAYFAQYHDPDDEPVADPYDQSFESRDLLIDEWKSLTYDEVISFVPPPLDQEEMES

Compound	IC50
Cc1noc(C)c1S(=O)(=O)N1CCC(c2[nH]nc(-c3ccc(F)cc3)c2-c2ccncc2)CC1 [Example B-1435]	1800 nM
O=S(=O)(c1cccc2nonc12)N1CCC(c2[nH]nc(-c3ccc(F)cc3)c2-c2ccncc2)CC1 [Example B-1436]	1000 nM
O=S(=O)(c1cccs1)N1CCC(c2[nH]nc(-c3ccc(F)cc3)c2-c2ccncc2)CC1 [Example B-1437]	300 nM
O=S(=O)(c1ccc(Cl)s1)N1CCC(c2[nH]nc(-c3ccc(F)cc3)c2-c2ccncc2)CC1 [Example B-1438]	2010 nM
O=S(=O)(c1ccc(-c2ccccn2)s1)N1CCC(c2[nH]nc(-c3ccc(F)cc3)c2-c2ccncc2)CC1 [Example B-1439]	1700 nM
O=S(=O)(c1ccccc1)c1ccc(S(=O)(=O)N2CCC(c3[nH]nc(-c4ccc(F)cc4)c3-c3ccncc3)CC2)s1 [Example B-1441]	1950 nM
O=S(=O)(c1cccc2cnccc12)N1CCC(c2[nH]nc(-c3ccc(F)cc3)c2-c2ccncc2)CC1 [Example B-1443]	14 nM
COc1ccc(Cl)cc1S(=O)(=O)N1CCC(c2[nH]nc(-c3ccc(F)cc3)c2-c2ccncc2)CC1 [Example B-1445]	430 nM
COc1ccc(C)c(S(=O)(=O)N2CCC(c3[nH]nc(-c4ccc(F)cc4)c3-c3ccncc3)CC2)c1 [Example B-1447]	500 nM
O=S(=O)(c1ccc(Cl)cc1Cl)N1CCC(c2[nH]nc(-c3ccc(F)cc3)c2-c2ccncc2)CC1 [Example B-1449]	1610 nM
O=S(=O)(c1cc(Cl)ccc1Cl)N1CCC(c2[nH]nc(-c3ccc(F)cc3)c2-c2ccncc2)CC1 [Example B-1450]	2100 nM
O=S(=O)(c1c(Cl)cccc1Cl)N1CCC(c2[nH]nc(-c3ccc(F)cc3)c2-c2ccncc2)CC1 [Example B-1451]	2880 nM
O=S(=O)(c1ccc(Cl)c(Cl)c1)N1CCC(c2[nH]nc(-c3ccc(F)cc3)c2-c2ccncc2)CC1 [Example B-1452]	2410 nM
O=S(=O)(c1cc(Cl)cc(Cl)c1)N1CCC(c2[nH]nc(-c3ccc(F)cc3)c2-c2ccncc2)CC1 [Example B-1453]	2530 nM
O=S(=O)(c1ccc(F)cc1F)N1CCC(c2[nH]nc(-c3ccc(F)cc3)c2-c2ccncc2)CC1 [Example B-1454]	1600 nM
O=S(=O)(c1ccccc1Cl)N1CCC(c2[nH]nc(-c3ccc(F)cc3)c2-c2ccncc2)CC1 [Example B-1457]	430 nM
O=S(=O)(c1ccccc1Br)N1CCC(c2[nH]nc(-c3ccc(F)cc3)c2-c2ccncc2)CC1 [Example B-1458]	950 nM
Cc1ccccc1S(=O)(=O)N1CCC(c2[nH]nc(-c3ccc(F)cc3)c2-c2ccncc2)CC1 [Example B-1459]	670 nM
N#Cc1ccccc1S(=O)(=O)N1CCC(c2[nH]nc(-c3ccc(F)cc3)c2-c2ccncc2)CC1 [Example B-1461]	400 nM
CS(=O)(=O)c1ccccc1S(=O)(=O)N1CCC(c2[nH]nc(-c3ccc(F)cc3)c2-c2ccncc2)CC1 [Example B-1462]	220 nM
O=S(=O)(c1ccccc1OC(F)(F)F)N1CCC(c2[nH]nc(-c3ccc(F)cc3)c2-c2ccncc2)CC1 [Example B-1463]	2340 nM
O=S(=O)(c1cccc(F)c1)N1CCC(c2[nH]nc(-c3ccc(F)cc3)c2-c2ccncc2)CC1 [Example B-1464]	1180 nM
O=S(=O)(c1ccc(Br)cc1)N1CCC(c2[nH]nc(-c3ccc(F)cc3)c2-c2ccncc2)CC1 [Example B-1472]	930 nM
CS(=O)(=O)c1ccc(S(=O)(=O)N2CCC(c3[nH]nc(-c4ccc(F)cc4)c3-c3ccncc3)CC2)cc1 [Example B-1476]	47 nM
O=S(=O)(c1ccc(OC(F)(F)F)cc1)N1CCC(c2[nH]nc(-c3ccc(F)cc3)c2-c2ccncc2)CC1 [Example B-1477]	2500 nM
Cc1c(-c2ccncc2)c(-c2ccc(F)cc2)nn1CC(=O)NCCc1ccc(F)cc1 [Example B-2271]	930 nM
CCOCCCNC(=O)Cn1nc(-c2ccc(F)cc2)c(-c2ccncc2)c1C [Example B-2273]	1920 nM

Compound	IC50
Cc1c(-c2ccncc2)c(-c2ccc(F)cc2)nn1CC(=O)NCc1ccccc1Cl [Example B-2274]	260 nM
Cc1c(-c2ccncc2)c(-c2ccc(F)cc2)nn1CC(=O)NCc1ccc(N(C)C)cc1 [Example B-2275]	2160 nM
Cc1c(-c2ccncc2)c(-c2ccc(F)cc2)nn1CC(=O)NCC1CC1 [Example B-2276]	11500 nM
Cc1c(-c2ccncc2)c(-c2ccc(F)cc2)nn1CC(=O)NCC(c1ccccc1)c1ccccc1 [Example B-2277]	14900 nM
COc1ccc(CNC(=O)Cn2nc(-c3ccc(F)cc3)c(-c3ccncc3)c2C)c(OC)c1 [Example B-2278]	800 nM
Cc1c(-c2ccncc2)c(-c2ccc(F)cc2)nn1CC(=O)NCCCN1CCCC1=O [Example B-2280]	400 nM
Cc1c(-c2ccncc2)c(-c2ccc(F)cc2)nn1CC(=O)NCc1ccccn1 [Example B-2281]	810 nM
Cc1c(-c2ccncc2)c(-c2ccc(F)cc2)nn1CC(=O)NCc1ccco1 [Example B-2282]	910 nM
Cc1c(-c2ccncc2)c(-c2ccc(F)cc2)nn1CC(=O)NC[C@@H]1CCCO1 [Example B-2283]	40 nM
Cc1c(-c2ccncc2)c(-c2ccc(F)cc2)nn1CC(=O)NCCN1CCOCC1 [Example B-2284]	4610 nM
Cc1c(-c2ccncc2)c(-c2ccc(F)cc2)nn1CC(=O)NCc1cccc2ccccc12 [Example B-2285]	2290 nM
Cc1c(-c2ccncc2)c(-c2ccc(F)cc2)nn1CC(=O)NCCCCCCN(C)C [Example B-2287]	2560 nM
Cc1c(-c2ccncc2)c(-c2ccc(F)cc2)nn1CC(=O)NCCCCN1CCCC1 [Example B-2288]	6510 nM
Cc1c(-c2ccncc2)c(-c2ccc(F)cc2)nn1CC(=O)NCc1ccc(C(C)(C)C)cc1 [Example B-2290]	2370 nM
Cc1c(-c2ccncc2)c(-c2ccc(F)cc2)nn1CC(=O)NCCc1cccnc1 [Example B-2291]	19 nM
COCCNC(=O)Cn1nc(-c2ccc(F)cc2)c(-c2ccncc2)c1C [Example B-2292]	8820 nM
CCCCNC(=O)Cn1nc(-c2ccc(F)cc2)c(-c2ccncc2)c1C [Example B-2293]	2110 nM
Cc1c(-c2ccncc2)c(-c2ccc(F)cc2)nn1CC(=O)NCCN(C)C [Example B-2294]	1680 nM
COC(=O)CCCNC(=O)Cn1nc(-c2ccc(F)cc2)c(-c2ccncc2)c1C [Example B-2295]	1790 nM
COc1ccc2[nH]cc(CCNC(=O)Cn3nc(-c4ccc(F)cc4)c(-c4ccncc4)c3C)c2c1 [Example B-2296]	17300 nM
COc1cc(CNC(=O)Cn2nc(-c3ccc(F)cc3)c(-c3ccncc3)c2C)cc(OC)c1OC [Example B-2297]	3590 nM
Cc1ccc(S(=O)(=O)NCCNC(=O)Cn2nc(-c3ccc(F)cc3)c(-c3ccncc3)c2C)cc1 [Example B-2299]	1970 nM
Cc1c(-c2ccncc2)c(-c2ccc(F)cc2)nn1CC(=O)NCCCCc1ccccc1 [Example B-2300]	70 nM
COC(=O)CCNC(=O)Cn1nc(-c2ccc(F)cc2)c(-c2ccncc2)c1C [Example B-2301]	180 nM
Cc1c(-c2ccncc2)c(-c2ccc(F)cc2)nn1CC(=O)NCCc1ccc([N+](=O)[O-])cc1 [Example B-2302]	1000 nM
Cc1c(-c2ccncc2)c(-c2ccc(F)cc2)nn1CC(=O)NCCc1ccc(Cl)c(Cl)c1 [Example B-2303]	11 nM
